# Data published in article PMC7044277 (Nature Communications, 2020).
# “And” between values parts separate entries of the source, which are not always exact repeats. Equal values may be shown once.
# Key:
# Assay type in all cases: cell-based
# 320 non-olfactory GPCRs [1] = target: 320 non-olfactory GPCRs (Homo sapiens, UniProt P30989); conditions: receptor NTSR1; replicate values, Fig_4g
# 320 non-olfactory GPCRs [2] = target: 320 non-olfactory GPCRs (Homo sapiens, UniProt P21728)
# 320 non-olfactory GPCRs [3] = target: 320 non-olfactory GPCRs (Homo sapiens, UniProt P25090)
# 320 non-olfactory GPCRs [4] = target: T1, 320 non-olfactory GPCRs (Homo sapiens, UniProt P28336); conditions: receptor NMBR; replicate values, Fig_4g
# T1 construct: expressed in transfected cells; host or cells: HTLA cells
# 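Throughout, for Fold of Basal: compound tested at 1 µM final concentration.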
# 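Throughout, for GPCRome agonism screen response: fold over basal response of each receptor without drug.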
# Sequence of 320 non-olfactory GPCRs (Homo sapiens, UniProt P25090) (P25090 whole entry): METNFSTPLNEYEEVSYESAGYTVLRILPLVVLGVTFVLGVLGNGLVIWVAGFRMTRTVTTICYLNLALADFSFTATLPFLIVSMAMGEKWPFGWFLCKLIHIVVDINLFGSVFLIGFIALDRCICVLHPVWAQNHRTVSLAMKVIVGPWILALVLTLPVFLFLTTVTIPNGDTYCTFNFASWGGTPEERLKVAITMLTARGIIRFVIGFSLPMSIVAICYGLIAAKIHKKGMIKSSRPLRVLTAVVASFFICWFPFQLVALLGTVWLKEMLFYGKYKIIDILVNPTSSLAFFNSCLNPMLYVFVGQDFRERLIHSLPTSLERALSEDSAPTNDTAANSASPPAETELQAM
# T1 sequence (P28336 whole entry): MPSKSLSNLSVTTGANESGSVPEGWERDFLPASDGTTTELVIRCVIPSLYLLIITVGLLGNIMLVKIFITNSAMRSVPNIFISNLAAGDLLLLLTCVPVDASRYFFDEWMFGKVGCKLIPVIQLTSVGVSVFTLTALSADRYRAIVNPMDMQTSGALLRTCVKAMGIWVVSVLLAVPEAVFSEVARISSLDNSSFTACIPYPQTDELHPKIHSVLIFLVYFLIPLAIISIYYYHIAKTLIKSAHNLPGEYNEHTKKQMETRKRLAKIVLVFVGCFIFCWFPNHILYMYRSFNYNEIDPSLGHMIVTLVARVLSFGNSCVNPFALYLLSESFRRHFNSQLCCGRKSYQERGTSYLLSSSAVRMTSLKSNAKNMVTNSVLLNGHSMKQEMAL
# Sequence of 320 non-olfactory GPCRs (Homo sapiens, UniProt P30989) (P30989 whole entry): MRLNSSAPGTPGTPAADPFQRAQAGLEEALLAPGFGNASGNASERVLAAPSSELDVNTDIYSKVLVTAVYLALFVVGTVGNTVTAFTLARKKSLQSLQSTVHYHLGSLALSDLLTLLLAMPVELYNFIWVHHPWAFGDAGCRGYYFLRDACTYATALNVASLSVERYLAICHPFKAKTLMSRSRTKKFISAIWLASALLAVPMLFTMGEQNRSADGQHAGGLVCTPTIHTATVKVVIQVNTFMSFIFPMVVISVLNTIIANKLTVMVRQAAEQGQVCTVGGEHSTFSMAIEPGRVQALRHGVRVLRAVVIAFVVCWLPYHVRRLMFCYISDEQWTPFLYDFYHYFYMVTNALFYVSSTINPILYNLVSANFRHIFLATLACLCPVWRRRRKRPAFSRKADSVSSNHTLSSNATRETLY
# Sequence of 320 non-olfactory GPCRs (Homo sapiens, UniProt P21728) (P21728 whole entry): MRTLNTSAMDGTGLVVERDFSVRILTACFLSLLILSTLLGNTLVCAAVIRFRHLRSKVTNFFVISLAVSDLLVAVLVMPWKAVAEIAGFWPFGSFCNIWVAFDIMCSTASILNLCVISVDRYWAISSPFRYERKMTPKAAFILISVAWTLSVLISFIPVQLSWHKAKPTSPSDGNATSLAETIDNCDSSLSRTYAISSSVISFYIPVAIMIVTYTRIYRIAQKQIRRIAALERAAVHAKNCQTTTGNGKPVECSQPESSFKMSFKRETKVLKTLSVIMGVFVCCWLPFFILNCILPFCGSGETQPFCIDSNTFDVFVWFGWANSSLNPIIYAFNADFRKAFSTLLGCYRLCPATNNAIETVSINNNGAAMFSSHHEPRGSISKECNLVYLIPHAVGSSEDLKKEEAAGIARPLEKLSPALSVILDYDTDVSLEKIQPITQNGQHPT
compound,measurement,setting,value
CCOc1cccc2cc(C(C)NCC3(O)CCCCC3)oc12 (stereo not shown) [O4LE6],GPCRome agonism screen response,320 non-olfactory GPCRs [1],0.7939 and 0.7425 and 1.49 and 2.039
same,Fold of Basal,320 non-olfactory GPCRs [2],0.7632 and 1.021 and 0.953 and 0.8141
same,Fold of Basal,320 non-olfactory GPCRs [3],1.561 and 1.917 and 2.561 and 1.97
same,GPCRome agonism screen response,320 non-olfactory GPCRs [4],0.2359 and 0.9261 and 0.9727 and 0.7093
